Measurements published in patent publication US20040054182A1, “1h-imidazopyridine derivatives” (priority 2000, published 2004).
Structures can show the parent of a compound that is named as a salt.

Columns and labels:
human TNF-alpha = assay: Inhibitory action against TNF-alpha production in LPS-stimulated human PBMCs (sandwich ELISA of culture supernatant); type: cell-based; conditions: 16 hours
Protocol: (§1) As an example of the excellent effects of the compounds of the present invention, experimental results of inhibitory actions against production of TNF-alpha and IL-1 beta in human cells will be shown below.
(§2) About 50 mL of whole blood was collected from each adult healthy volunteer by venepuncture, and poured into plastic tubes which containing 170 micro L of Novo-heparin 1000 (produced by Novo-Nordisk). Then, PBMCs (Peripheral Blood Mononuclear Cells) were separated using LeucoPREP™ (produced by Becton Dickinson) lymphocyte separation tube, and cultured with RPMI-1640 medium (produced by Nissui Pharmaceutical Co.) containing 2 mM L-glutamine (produced by Life Technologies), 2.5 U/mL penicillin-2.5 micro g/mL streptomycin solution (produced by Life Technologies) supplemented with 10% fetal calf serum (produced by Intergen Company) at 1×10^6 cells/mL.
(§3) Test compounds were dissolved in distilled ultra-pure water, dimethyl sulfoxide or 0.1 M hydrochloric acid at 20 micro M as far as possible, and then sequentially diluted with saline and used.
(§4) A hundred and eighty micro L of prepared human PBMCs were added to each well of 96-well plate (MicroTest III™ tissue culture plate; produced by Becton Dickinson) containing 10 micro L of adequate concentrations solution of test compounds. Then 30 minutes after, 10 micro L of 20 micro g/mL lipopolysaccharide (LPS) was added to each well, and cells in the well plate were covered with plastic lid and incubated for 16 hours at 37° C. in an atmosphere of 5% CO2.
(§5) The levels of human TNF-alpha and human IL-1 beta in culture supernatant were measured by constructed sandwich enzyme-linked immunosorbent assay method. Ninety-six-well microtiter plates were coated with diluted anti-cytokine antibody (capture/first-antibody). After washing the wells, the culture supernatant was diluted appropriately, added to each well and incubated. Then detection/second-antibody against cytokine and HRP (horseradish peroxidase)-conjugated/third-antibody against detection-antibody were added to wells sequentially, with interposed washing processes. After the final washing process, reaction of calorimetric quantification was started by addition of tetramethylbenzidine solution (produced by DAKO) to each well. After quenching the reaction by addition of 0.5 M sulfuric acid, optical absorbance of each well at 450 nm was measured by M-VmaxTM kinetic microplate reader (produced by Molecular Devices). Concentrations of cytokines were determined by Softmax™ (produced by Molecular Devices) quantification software in comparison with calibration curve derived from corresponding recombinant cytokines as standard. For measurement of human TNF-alpha, monoclonal mouse anti-human TNF-alpha (produced by ENDOGEN), polyclonal rabbit anti-human TNF-alpha (produced by Pharma Biotechnologie Hannover), peroxidase-conjugated donkey anti-rabbit IgG antibodies (produced by Jackson ImmunoRes. Labs.), and recombinant human TNF-alpha (produced by INTERGEN Company) were used for the capture-, detection-, HRP-conjugated-antibodies and the standard for calibration curve, respectively. […]

human IL-1 beta = assay: Inhibitory action against IL-1 beta production in LPS-stimulated human PBMCs (sandwich ELISA of culture supernatant); type: cell-based; conditions: 16 hours
Protocol: as §1, §2, §3, §4, §5

[1] = administered concentration 0.01 micro mol/L
[2] = administered concentration 0.03 micro mol/L
[3] = administered concentration 0.10 micro mol/L
[4] = administered concentration 0.3 micro mol/L
[5] = administered concentration 1.0 micro mol/L

| melting point | SMILES | also measured |
| --- | --- | --- |
| 254 to 258 °C (dec.) | FC(F)(F)c1nc2ccccc2c2c1nc(-c1ccc[nH]1)n2CCC1CNCCO1 (centres unmarked) (as salt: trifluoroacetate) [Example 102, 1-[2-(2-Morpholinyl)ethyl]-2-(2-pyrrolyl)-4-trifluoromethyl-1H-imidazo[4,5-c]-quinoline] |  |
| 212 to 213.5 °C | c1c[nH]c(-c2nc3c(C4CC4)nc4ccccc4c3n2CCC2CCNCC2)c1 (hydrate or solvate) [Example 111, 4-Cyclopropyl-1-[2-(4-piperidyl)ethyl]-2-(2-pyrrolyl)-1H-imidazo[4,5-c]quinoline] |  |
| 268 to 270 °C | c1ccc(-c2nc3ccccc3c3c2nc(-c2ccc[nH]2)n3CCC2CCNCC2)cc1 (hydrate or solvate) [Example 113, 4-Phenyl-1-[2-(4-piperidyl)ethyl]-2-(2-pyrrolyl)-1H-imidazo[4,5-c]quinoline] |  |
| 280 to 282.5 °C (dec.) | FC(F)(F)c1nc2ccccc2c2c1nc(-c1ccc[nH]1)n2CCC1CCNCC1 [Example 64, 1-[2-(4-Piperidyl)ethyl]-2-(2-pyrrolyl)-4-trifluoromethyl-1H-imidazo[4,5-c]-quinoline] |  |
| 199 to 200 °C | FC(F)(F)c1nc2ccccc2c2c1nc(-c1nccs1)n2CCC1CCNCC1 [Example 70, 1-[2-(4-Piperidyl)ethyl]-2-(2-thiazolyl)-4-trifluoromethyl-1H-imidazo[4,5-c]-quinoline] |  |
| 232.5 to 234 °C (dec.) | FC(F)(F)c1nc2cc(Cl)ccc2c2c1nc(-c1nccs1)n2CCC1CCNCC1 [Example 74, 7-Chloro-1-[2-(4-piperidyl)ethyl]-2-(2-thiazolyl)-4-trifluoromethyl-1H-imidazo-[4,5-c]quinoline] |  |
| 187 to 188 °C | FC(F)(F)c1nc2ccccc2c2c1nc(-c1ccccc1)n2CCN1CCNCC1 [Example 99, 2-Phenyl-1-[2-(1-piperazinyl)ethyl]-4-trifluoromethyl-1H-imidazo[4,5-c]-quinoline] |  |
|  | FC(F)(F)c1nc2ccccc2c2c1nc(-c1ccc[nH]1)n2CCC1CNCCO1 (centres unmarked) [Example 102, 1-[2-(2-Morpholinyl)ethyl]-2-(2-pyrrolyl)-4-trifluoromethyl-1H-imidazo[4,5-c]-quinoline] | Inhibitory action against TNF-alpha production in human cells (inhibitory percentages of cytokine production) (human TNF-alpha; [1]): 96%; Inhibitory action against TNF-alpha production in human cells (inhibitory percentages of cytokine production) (human TNF-alpha; [2]): 84%; Inhibitory action against TNF-alpha production in human cells (inhibitory percentages of cytokine production) (human TNF-alpha; [3]): 25%; Inhibitory action against TNF-alpha production in human cells (inhibitory percentages of cytokine production) (human TNF-alpha; [4]): 23%; Inhibitory action against TNF-alpha production in human cells (inhibitory percentages of cytokine production) (human TNF-alpha; [5]): 27%; Inhibitory action against IL-1 beta production in human cells (inhibitory percentages of cytokine production) (human IL-1 beta; [1]): 81%; Inhibitory action against IL-1 beta production in human cells (inhibitory percentages of cytokine production) (human IL-1 beta; [2]): 67%; Inhibitory action against IL-1 beta production in human cells (inhibitory percentages of cytokine production) (human IL-1 beta; [3]): 48%; Inhibitory action against IL-1 beta production in human cells (inhibitory percentages of cytokine production) (human IL-1 beta; [4]): 0%; Inhibitory action against IL-1 beta production in human cells (inhibitory percentages of cytokine production) (human IL-1 beta; [5]): 0% |
| 174.5 to 175.5 °C | NCCn1c(-c2ccccc2)nc2c(C(F)(F)F)nc3ccccc3c21 [Example 108, 1-(2-Aminoethyl)-2-phenyl-4-trifluoromethyl-1H-imidazo[4,5-c]quinoline] |  |
| 195.5 to 196.5 °C | NCCn1c(-c2ccc[nH]2)nc2c(C(F)(F)F)nc3ccccc3c21 [Example 109, 1-(2-Aminoethyl)-2-(2-pyrrolyl)-4-trifluoromethyl-1H-imidazo[4,5-c]quinoline] |  |
| 209 to 211 °C | c1ccc(-c2nc3ccccc3c3c2nc(-c2ccccc2)n3CCC2CCNCC2)cc1 [Example 112, 2,4-Diphenyl-1-[2-(4-piperidyl)ethyl]-1H-imidazo[4,5-c]quinoline] |  |
| 230.5 to 231.5 °C | O=C(CCl)NCCn1c(-c2ccccc2)nc2c(C(F)(F)F)nc3ccccc3c21 [Example 124, 2-chloro-N-[2-(2-phenyl-4-trifluoromethyl-1H-imidazo[4,5-c]quinolin-1-yl)ethyl]acetamide] |  |
| 234 to 235 °C | O=C(CCl)NCCn1c(-c2ccc[nH]2)nc2c(C(F)(F)F)nc3ccccc3c21 [Example 125, 2-chloro-N-[2-[2-(2-pyrrolyl)-4-trifluoromethyl-1H-imidazo-[4,5-c]quinolin-1-yl]ethyl]acetamide] |  |
| 208 to 209 °C | CNCC(=O)NCCn1c(-c2ccccc2)nc2c(C(F)(F)F)nc3ccccc3c21 [Example 127, 2-Methylamino-N-[2-(2-phenyl-4-trifluoromethyl-1H-imidazo[4,5-c]quinolin-1-yl)-ethyl]acetamide] |  |
| 207.5 to 208 °C | CN(C)CC(=O)NCCn1c(-c2ccccc2)nc2c(C(F)(F)F)nc3ccccc3c21.O=C(O)/C=C/C(=O)O [Example 128, 2-Dimethylamino-N-[2-(2-phenyl-4-trifluoromethyl-1H-imidazo[4,5-c]quinolin-1-yl)-ethyl]acetamide fumarate] |  |
| 219 to 222 °C (dec.) | CN(C)CC(=O)NCCn1c(-c2ccc[nH]2)nc2c(C(F)(F)F)nc3ccccc3c21.O=C(O)/C=C/C(=O)O [Example 129, 2-Dimethylamino-N-[2-[2-(2-pyrrolyl)-4-trifluoromethyl-1H-imidazo[4,5-c]quinolin-1-yl]ethyl]acetamide fumarate] |  |
| 176 to 177 °C (dec.) | NCC(=O)NCCn1c(-c2ccc[nH]2)nc2c(C(F)(F)F)nc3ccccc3c21.O=C(O)/C=C/C(=O)O [Example 131, 2-Amino-N-[2-[2-(2-pyrrolyl)-4-trifluoromethyl-1H-imidazo[4,5-c]quinolin-1-yl]ethyl]-acetamide fumarate] |  |
